We go through three molecules from PMC7414129, “Visualizing the enzyme mechanism of mevalonate diphosphate decarboxylase” (Nature Communications, 2020).

The target of data set [1] is T1, MDDEF (mevalonate diphosphate decarboxylase from Enterococcus faecalis) (Enterococcus faecalis, UniProt Q9FD68, K187A).
T1 construct: gene mvaD
Kind of data set: biochemical.

The target of data set [2] is T2, MDDEF (mevalonate diphosphate decarboxylase from Enterococcus faecalis) (Enterococcus faecalis, UniProt Q9FD68).
T2 construct: gene mvaD; full-length, recombinant in E. coli BL21(DE3); N-terminal His tag removed by TEV protease (told for K187A, wild type purified similarly); residues 1-326 modelled
T2 sequence (Q9FD68 1-331): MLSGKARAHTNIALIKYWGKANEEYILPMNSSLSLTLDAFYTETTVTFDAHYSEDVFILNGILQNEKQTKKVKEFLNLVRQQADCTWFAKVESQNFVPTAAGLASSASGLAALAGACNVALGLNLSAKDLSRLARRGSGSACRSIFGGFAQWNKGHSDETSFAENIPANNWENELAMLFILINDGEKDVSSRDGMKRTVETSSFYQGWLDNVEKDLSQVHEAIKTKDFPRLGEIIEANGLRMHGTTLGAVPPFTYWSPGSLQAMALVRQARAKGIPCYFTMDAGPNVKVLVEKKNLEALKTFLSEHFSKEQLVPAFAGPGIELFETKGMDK
Kind of data set: X-ray crystal structure (soaked). The format is binding. The conditions noted are these: 1.7 Å; binary complex; pH 4.6.

Substrate in data set [3]: C[C@@](O)(CCOP(=O)(O)OP(=O)(O)O)CC(=O)O
Nature of the data set: purified protein. The note with it: cobalt substituting for magnesium, co-substrate ATP, 100 mM HEPES pH 7.0, 100 mM KCl, 30 °C (standard assay).

Substrate in data set [4]: Nc1ncnc2c1ncn2[C@@H]1O[C@H](COP(=O)(O)OP(=O)(O)OP(=O)(O)O)[C@@H](O)[C@H]1O
Nature of the data set: purified protein. The note with it: cobalt substituting for magnesium, co-substrate MVAPP, 100 mM HEPES pH 7.0, 100 mM KCl, 30 °C (standard assay).

By Kd is commonly meant the concentration at which binding is half-saturated. A higher Kd goes with lower affinity. Molecule `Nc1ncnc2c1ncn2[C@@H]1O[C@H](CO[P@](=O)(O)O[P@](=O)(O)O[P@@](=O)(O)S)[C@@H](O)[C@H]1O` [ATPγS] came in with a Kd in data set [1] of 182 ± 36 µM.
For `C[C@@](O)(CCOP(=O)(O)OP(=O)(O)O)CC(=O)O` [MVAPP, mevalonate-5-diphosphate], the “X-ray crystal structure (soaked)” value in data set [2] was “MDDEF-MVAPP: 6E2T”.

B1: MDDEF (mevalonate diphosphate decarboxylase from Enterococcus faecalis) (Enterococcus faecalis) (protein)
chain: T2 sequence (Q9FD68 1-331)
One may read the Km as the substrate concentration at which the rate is half of its maximum. For the molecule B1, the Michaelis-Menten constant (Km) in “purified protein [3]” stood at 39.3 ± 4.0 µM; in the data set “purified protein [4]”, 188 ± 13 µM.
